Laboratory results reported in PMC12040169 (PLOS Biology, 2025).

Experiment: in vitro
Conditions: human, hela cells, % viability

Point of comparison: `N#Cc1ccccc1CSc1nc2ccc(NC(=O)c3ccc([N+](=O)[O-])cc3)cc2s1` [CBK265868], viability at 28.5 h, 10 µM 90.7%. Against it:
- O=C(c1ccccc1Br)N1CCN(c2ccc([N+](=O)[O-])c(NCc3cccnc3)c2)CC1 [CBK265735] — higher, 100%
- O=C(O)CCSc1nnc2[nH]c3ccccc3n12 [CBK265736] — higher, 108%
- CCn1nccc1C(=O)Nc1nc2ccccc2n1CCN1CCCCC1 [CBK265737] — lower, 89.1%
- Cc1ccc(C)c(C(=O)C2=C(O)C(=O)N(CCN(C)C)C2c2ccc(O)cc2)c1 (stereo not drawn) [CBK265740] — higher, 102%
- O=C(NC(NC(=O)c1ccccc1F)c1ccc2c(c1)OCO2)c1ccccc1F [CBK265742] — higher, 106%
- COc1ccc(N2CCN(CC(=O)Nc3ccc(Cl)cc3C(=O)c3ccccc3)CC2)cc1 [CBK265743] — the same, 90.7%
- NC(=O)c1c(NC(=O)c2ccc(-c3ccccc3)cc2)sc2c1CCC2 [CBK265747] — higher, 91.3%
- O=C(Nc1ccc(Cl)cc1C(=O)NCCN1CCOCC1)c1ccc(Cl)cc1Cl [CBK265749] — higher, 105%
- O=C(c1ccc(COc2ccccc2Cl)o1)N1CCN(Cc2ccc3c(c2)OCO3)CC1 [CBK265750C] — lower, 87.3%
- CCOC(=O)c1cnc2ccc(F)cc2c1NCCN(C)C [CBK265751] — higher, 91.7%
- Sc1nncn1NCc1cc(Cl)ccc1OCc1ccccc1 [CBK265752] — lower, 88.9%
- CCn1cc(C(=O)O)c(=O)c2cnc(N3CCN(C(=S)NC(=O)c4cccs4)CC3)nc21 [CBK265753] — higher, 95.7%
- COC(=O)c1ccc(NC(=O)c2ccccc2-c2ccccc2C(=O)O)cc1 [CBK265759] — higher, 110%
- CCC(Sc1nc(N)cc(=O)[nH]1)C(=O)Nc1ccc2ccccc2c1 (stereo not drawn) [CBK265761] — higher, 98.9%
- O=C(CSc1nnc(-c2ccco2)c(-c2ccco2)n1)Nc1ccccc1[N+](=O)[O-] [CBK265762] — higher, 107%
- CN1CCN(NC(=O)c2cccc(COc3ccccc3Cl)c2)CC1 [CBK265765] — higher, 99.2%
- O=C(Nc1ccc(Cc2ccc(O)c(NC(=O)c3ccccc3F)c2)cc1O)c1ccccc1F [CBK265766] — lower, 85.4%
- COc1cccc(C(=O)Nc2ccccc2C(=O)Nc2cccc(C(=O)O)c2C)c1 [CBK265768] — lower, 88.1%
- CN1CCN(C(=O)CN(Cc2ccc(Cl)cc2)S(=O)(=O)c2ccc(Br)cc2)CC1 [CBK265771] — higher, 113%
- CCn1c(=O)[nH]c2cc(C(=O)NCCc3ccccc3)ccc2c1=O [CBK265773] — higher, 95.2%
- O=c1[nH]c2ccc(Cl)cc2c(-c2ccccc2)c1N1CCN(Cc2ccc3c(c2)OCO3)CC1 [CBK265776] — higher, 92.3%
- Cn1c(SCC(=O)Nc2ccc(N3CCOCC3)c(Cl)c2)nnc1-c1ccc(N)cc1 [CBK265777] — higher, 102%
- CC(C)(C)CC(=O)O/N=C(\N)c1ccccn1 [CBK265779] — higher, 105%
- COc1cccc(CNn2cnnc2S)c1OCc1ccccc1 [CBK265781] — higher, 96.3%
- NC(=O)C1CCN(CC(=O)Nc2ccc([N+](=O)[O-])cc2C(=O)c2ccccc2)CC1 [CBK265782] — lower, 89.3%
- Cc1ccccc1OCC(=O)NN1CCN(C)CC1 [CBK265783C] — lower, 89%
- CN(C)CCCNc1cc(Cl)c(S(=O)(=O)N2CCCCC2)cc1C(=O)O [CBK265784] — higher, 95.5%
- CCC(Sc1nnc(-c2ccc([N+](=O)[O-])cc2)n1C)C(=O)Nc1ccc(Cl)cc1 (stereo not drawn) [CBK265785] — higher, 101%
- C/C(=C(/C(=O)N(N)c1nc2ccccc2s1)C(=O)C(F)(F)F)N1CCC(C(N)=O)(N2CCCCC2)CC1 [CBK265787] — higher, 101%
- COc1ccccc1NC(=O)c1sc2ncn(CC(=O)NC3CCCCC3)c(=O)c2c1C [CBK265788] — higher, 98.5%
- Cc1ccc(-c2nc3ccccc3[nH]2)cc1NC(=O)CCCc1ccccc1 [CBK265789] — higher, 92.9%
- O=C(Nc1ccc2c(c1)OCCO2)c1cc(S(=O)(=O)N2CCCCC2)c(Cl)cc1Cl [CBK265790] — lower, 90%
- CN(CC(=O)N1CCN(Cc2ccc3c(c2)OCO3)CC1)S(=O)(=O)c1ccccc1 [CBK265791] — lower, 87%
- CC1=CCC(C(=O)O)C(C(=O)Nc2ccccc2NC(=O)c2ccc(C(F)(F)F)cc2)C1 (stereo not drawn) [CBK265794] — higher, 99.9%
- Cc1nn(Cc2ccc(C(=O)N3CCN(Cc4ccccc4)CC3)o2)c(C)c1Br [CBK265796C] — lower, 88.8%
- CCC1C=CCC(C(=O)O)C1C(=O)Nc1ccc(C(=O)N2CCOCC2)cc1 (stereo not drawn) [CBK265798] — higher, 102%
- O=C(CN1CCN(c2ccccc2)CC1)Nc1ccc([N+](=O)[O-])cc1C(=O)c1ccccc1 [CBK265799] — lower, 89.6%
- O=C(CN(Cc1ccc(Cl)cc1Cl)S(=O)(=O)c1ccccc1)Nc1c(F)cccc1F [CBK265801] — higher, 99.1%
- CC(=O)Nc1ccc(Nc2ncnc3c2cnn3-c2ccc(C)cc2C)cc1 [CBK265803] — higher, 116%
- COC(Cc1nc2ccccc2s1)C(=O)O (stereo not drawn) [CBK265806] — higher, 101%
- O=c1c(-c2ccccc2)c(C(F)(F)F)oc2c(CN3CCN(Cc4ccccc4)CC3)c(O)ccc12 [CBK265808] — higher, 95%
- Cc1ccc(N(C(=O)COc2ccc(C(C)(C)C)cc2)C2C=CS(=O)(=O)C2)cc1 (stereo not drawn) [CBK265811] — higher, 105%
- O=C(NC(=S)Nc1ccc(-c2nc3ncccc3o2)cc1)c1ccc2c(c1)OCCO2 [CBK265812] — higher, 96.4%
- Cc1ccc(CN(CC(=O)N2CCC(C(N)=O)CC2)S(=O)(=O)c2ccc(Br)cc2)cc1 [CBK265813] — higher, 102%
- CCN1CCN(c2ncnc3c2cnn3-c2cccc(C)c2)CC1 [CBK265814] — higher, 93.8%
- COc1ccc(Cc2nnc(SCC(=O)Nc3ccc(Br)c(C)c3)n2C)cc1 [CBK265816] — lower, 83.9%
- NS(=O)(=O)c1ccc(NC(=S)NCCN2CCOCC2)cc1 [CBK265818] — higher, 107%
- CCC(=O)c1cccc2c1NC=C1C(=O)CC(C)(C)CC1=N2 [CBK265821] — higher, 108%
- CC(=O)Nc1ccc(-c2nnc(SCc3c(Cl)cccc3[N+](=O)[O-])n2C)cc1 [CBK265823] — lower, 89.1%
- CCOc1cccc(CNn2cnnc2)c1OCc1ccccc1 [CBK265824] — lower, 81.2%
- CCSc1nc2ccccc2n1C(=O)c1ccc(S(=O)(=O)N2CCCCCC2)cc1 [CBK265825] — higher, 91.6%
- CCn1ncc(Br)c1C(=O)Nc1ccc(Cl)cn1 [CBK265826] — higher, 94.8%
- O=C(CN1CCN(c2ccccc2)CC1)Nc1ccc(Cl)cc1C(=O)c1ccccc1 [CBK265827] — higher, 107%
- C/C(O)=C1/C(=O)N(c2nc3ccccc3s2)N=C1CC(=O)O [CBK265828] — lower, 90.5%
- Cc1ccccc1OCc1nnc(SCC(=O)c2ccc3c(c2)Cc2ccccc2-3)n1C [CBK265829] — higher, 93.9%
- COC(=O)C1C(=O)NC(SCC(=O)Nc2cccc(Cl)c2C)=C(C#N)C1c1ccccc1F (stereo not drawn) [CBK265830] — higher, 94.9%
- Cc1ccc(C(C)C)c(OCc2ccc(C(=O)Nc3ccc(S(N)(=O)=O)cc3C)o2)c1 [CBK265833] — higher, 96.3%
- CCOC(=O)c1cnc2ccc(F)cc2c1NCc1ccco1 [CBK265834] — higher, 97%
- CCn1nccc1C(=O)NC1=C(C#N)CCC1 [CBK265836] — higher, 97.6%
- CCCC(=O)Nc1ccccc1NC(=O)c1ccc2c(c1)OCO2 [CBK265841] — higher, 103%
- COc1ccccc1NC(=O)c1ccc(OCC(=O)O)cc1 [CBK265849] — higher, 100%
- NCCc1c[nH]c2ccc(OCC(=O)O)cc12 [CBK265853C] — lower, 86.2%
- Cn1c(Cc2cccc3ccccc23)nnc1SCC(=O)Nc1ccccc1F [CBK265856] — lower, 85%
- Cc1ccc2nc(-c3ccc(NC(=O)CSc4nc(-c5ccccc5)cc(=O)[nH]4)cc3)sc2c1 [CBK265861] — lower, 78.5%
- O=C(CN1CCN(Cc2ccc3c(c2)OCO3)CC1)Nc1ccc(Oc2ccccc2)cc1 [CBK265864] — higher, 94%
- CCOc1ccc(-c2nc(C#N)c(NCCN3CCOCC3)o2)cc1 [CBK265867] — higher, 112%
- Cc1ccc(-c2ccc(CCC(=O)O)n2N=C(N)S)cc1 [CBK265870] — higher, 91%
- NC(=O)c1c(NC(=O)c2ccc(COc3ccc4ccccc4c3)o2)sc2c1CCCC2 [CBK265871] — lower, 88.5%
- COc1ccc(OC)c(NC(=O)CSc2nnc(-c3ccc(N)cc3)n2C)c1 [CBK265872] — higher, 106%
- Cc1cc(NC(=O)CCCN2C(=O)c3cccc4cccc(c34)C2=O)n(-c2ccccc2)n1 [CBK265874] — higher, 109%
- Cc1ccc(S(=O)(=O)NC2c3cccc4cccc(c34)C2Sc2n[nH]c(N)n2)cc1 (stereo not drawn) [CBK265875] — lower, 77.6%
- O=c1c2ccccc2nc(/C=C/c2cccnc2)n1Cc1ccccc1 [CBK265876] — higher, 106%
- CN(C)CCNC(=O)c1ccc(COc2ccc(Cl)cc2Cl)cc1 [CBK265878] — higher, 90.9%
- N#Cc1nc(-c2ccccc2F)oc1NCCCN1CCOCC1 [CBK265881] — higher, 107%
- CN(C)S(=O)(=O)c1cc(C(=O)NCCc2c[nH]c3ccccc23)c(Cl)cc1Cl [CBK265883] — lower, 87.5%
- Cc1ccc(S(=O)(=O)NC2c3cccc4cccc(c34)C2Sc2nnnn2-c2ccccc2)cc1 (stereo not drawn) [CBK265884] — higher, 93.1%
- O=C(c1cccc(S(=O)(=O)N2CCOCC2)c1)N(Cc1ccc(F)cc1)Cc1ccco1 [CBK265885] — higher, 92.8%
- OCCN1CCN(C(S)=NC2CCCC2)CC1 [CBK265886] — higher, 91.6%
- Cc1ccc([N+](=O)[O-])cc1NC(=O)CSc1nnc(Cc2ccccc2)o1 [CBK265889] — higher, 116%
- CC1=CCC(C(=O)O)C(C(=O)Nc2cccnc2)C1 (stereo not drawn) [CBK265895] — higher, 92.9%
- NC(=O)C1(N2CCCCC2)CCN(C(=S)Nc2ccc(S(N)(=O)=O)cc2)CC1 [CBK265900] — lower, 90.5%
- Cc1cccc(-n2c(SCC(=O)Nc3ccc(Br)cc3F)nnc2-c2ccccc2)c1 [CBK265903] — higher, 98.9%
- CN(C)S(=O)(=O)N(CC(=O)Nc1cccc([N+](=O)[O-])c1)c1ccccc1 [CBK265904] — lower, 90.2%
